Results as given in article PMC3965533, “Inhibition of Cathepsin B by E-64 Induces Oxidative Stress and Apoptosis in Filarial Parasite” (PLoS ONE, 2014).

Test system: cathepsin B (cathepsin B like cysteine protease)

IC50: 6 µM
SMILES: CC(C)C[C@H](NC(=O)[C@H]1O[C@@H]1C(=O)O)C(=O)NCCCCNC(=N)N [E-64, L-trans-Epoxysuccinyl-leucylamido (4-guanidino)butane]
